Results taken from patent US5229267A, “Assay for evaluating inhibition of PMN elastase by N-substituted azetidinones” (Merck & Co., Inc., priority 1991, dated 1993).

Test system: antibody R674
Assay: RIA: displacement of tritium labeled Compound A' or B' from polyclonal rabbit antiserum R674
Type: binding, New Zealand white rabbits
Settings: up to 10 μM (the highest concentration tested)
Description: Antibodies for the reactivation product of formula II were produced by the methods described in Basic methodology of Vituakaitis, Meth. Enzymol. 73: 46-52 (1981). Specifically, New Zealand white rabbits were immunized with Compound C (the para succinyl aminomethyl derivative of compound B'), coupled to thyroglobulin. See Scheme 3. The initial immunizations employed 1 mg of the immunogen conjugate per ml saline homogenized with 1 ml of Freund's complete adjuvant. Rabbits received a total of 0.4 ml divided over 2 intramuscular sites. Animals were boosted 30 days later receiving 0.5 mg immunogen per ml saline homogenized with 1 ml Freund's Incomplete adjuvant. […]
Antibody titer, antibody sensitivity, antibody specificity and the presence of and concentration of reactivation product in body fluids were determined by a radioimmunoassay (RIA). […]
Non-antibody-bound radioactive isotope was removed from the reaction mixture by it's absorption onto dextran-coated activated charcoal. […] The supernatant fluid was decanted into 9 ml of AQUASOL-2 scintillation fluid and radioactivity counted in a beta-counter. […] Percent specific binding was determined by subtracting the value for non-specific binding from the value of total antiserum binding and then dividing by the total radioactivity added.
Sensitivity of the antisera R674 (2nd bleed) was determined in the above RIA. […]

Row | SMILES | effect in RIA (displacement)
1 | NC(N)=O [Urea, urea] | without affect
2 | N=C(N)NCCC[C@H](N)C(=O)O [arginine] | without affect
